Data taken from patent publication US20200165194A1, “ADDITIVE COMPOSITION FOR CULTURE MEDIUM, ADDITIVE COMPOUND FOR CULTURE MEDIUM, AND METHOD FOR CULTURE OF CELLS OR TISSUE USING SAME” (NISSAN CHEMICAL CORPORATION, priority 2017, published 2020).

Tests used:
Format in all cases: cell-based
[1] = system: Canine kidney renal tubule epithelial cells (MDCK cells); experiment: MDCK cells-2: Cyst formation on Matrigel, size and number of Cysts (Experimental Example 8); details: for proportion of Cysts of 70 μm or more: 6 days, control 35%; for Cyst morphology, confocal fluorescence microscope (in words): FIG. 1
Protocol: Canine kidney renal tubule epithelial cells (MDCK cells, manufactured by DS PHARMA BIO MEDICAL) were precultured in EMEM medium containing 10% FBS and 1% NEAA. Cold Matrigel (registered trade mark) Matrix GFR (manufactured by Corning) was spread on a 24-well plate by 50 μL and fixed by incubating at 37° C. for 15 min. The aforementioned MDCK cells were suspended in a medium at 10000 cells/mL, cold Matrigel (registered trade mark) Matrix GFR was added at 20 μL/mL and seeded at 1 mL/well. […] As a control (compound no-addition), DMSO was added at a final concentration of 0.1%. Six days later, the size and number of Cysts formed were measured using Cell^3iMager (manufactured by Screen Inc.). The proportion of the Cysts of 70 μm or more in the entire Cysts is shown in the fourteenth table.
The cells were washed with PBS (1 mL/well), 4% paraformaldehyde/PBS (manufactured by Wako Pure Chemical Industries, Ltd.) was added (1 mL/well) and fixed at room temperature for 20 min. Thereafter, the supernatant was removed, IF buffer (0.2% Triton X-100 (manufactured by Sigma-Aldrich), 0.05% Tween 20 (manufactured by Sigma-Aldrich)-containing PBS) were added at 1 mL/well, stood for 30 min and removed. Penetration buffer (0.5% Triton X-100 (manufactured by Sigma-Aldrich)/PBS) was added at 1 mL/well and incubated at room temperature for 30 min. The supernatant was removed, washed 3 times every 5 min with IF buffer, blocking buffer (1% BSA (manufactured by Sigma-Aldrich)/IF buffer) was added at 0.5 mL/well and incubated for 30 min. The supernatant was removed, an anti-P catenin antibody (manufactured by BD Bioscience) diluted 100-fold with blocking buffer was added at 250 μL/well, and the cells were incubated at room temperature for 60 min. The cells were washed 3 times every 5 min with IF buffer, the secondary antibody (Alexa Fluor 555, manufactured by Thermo Fisher Scientific) and Phalloidin (Alexa Fluor 488, manufactured by Thermo Fisher Scientific), each diluted 250-fold with blocking buffer, were added at 250 μL/well, and the cells were incubated at room temperature in shading for 60 min.

[2] = system: SKOV3 cells (human ovarian cancer-derived cell line); experiment: Cell proliferation activity in three-dimensional medium FCeM, ATP assay (Experimental Example 1); details: SKOV3, 3D medium FCeM, 4 days, DMSO control = 100%, average of two tests
Protocol: A cell proliferation promoting effect when the compound to be used in the present invention was added to a three-dimensional medium was studied. Specifically, precultured (adhesion cultured) SKOV3 cells (human ovarian cancer-derived cell line) were recovered and suspended in a three-dimensional cell culture medium (“FCeM (registered trade mark)” (Nissan chemical corporation)) to prepare a cell suspension. […] The cell suspension seeded in the plate was stood overnight at 37° C., 5% CO2. Then, a DMSO diluted solution (4.44 μL) of the compound to be used in the present invention was added at a final concentration of 5 μM (or two steps of […] and 10 μM) (no stirring after addition). After addition of each compound, the mixtures were stood for 4 days at 37° C., 5% CO2. […] The luminescence intensity (RLU value) was measured by FlexStation3 (manufactured by Molecular Devices), and cell proliferation was evaluated.
The proliferation rate was calculated based on the control (cells added with DMSO without containing the compound to be used in the present invention) as the standard (100%). The values shown in the tables are average values of the results of two tests.

[3] = system: human epithelial-like cell cancer-derived cell line A431; experiment: Cells cultured by hanging drop method, ATP assay (Experimental Example 12); details: for cell number (in words): A431 cell line, three-dimensional cell culture by the hanging drop method; for cell number (relative value): A431 cell, hanging drop, 5 μM, 2 days, control = 100%
Protocol: (§1) Human epithelial-like cell cancer-derived cell line A431 (manufactured by ATCC) was cultured using 10% FBS and 1% MEM non-essential amino acid solution (MEM NEAA, manufactured by Wako Pure Chemical Industries, Ltd.)-containing EMEM (manufactured by Wako Pure Chemical Industries, Ltd.)). In addition, bone marrow-derived human mesenchymal stem cells (BM-hMSC, manufactured by PromoCell) were cultured using a mesenchymal stem cell proliferation medium (manufactured by PromoCell). Each of the above-mentioned cells in the logarithmic growth phase was washed with PBS, a 0.25 w/v % trypsin-1 mmol/L EDTA (ethylenediaminetetraacetic acid) solution (manufactured by Wako Pure Chemical Industries, Ltd.) was added, and the cells were detached by incubating at 37° C. for 3 min. Each medium was added, the mixture was centrifuged, and the supernatant was removed.
(§2) The cell suspension was seeded by 10 μL in 15 drops on the back surface of the lid of a 3.5 cm dish (manufactured by Falcon, #351008) to form droplets. At this time, as a control, a medium supplemented with DMSO (final concentration of DMSO: 0.05%) was seeded by 10 μL in 15 drops. The lid was returned to a 3.5 cm dish added with 2 mL of PBS, and cultured for 2 days in an incubator at 37° C., 5% CO2. The cultured droplets were collected in a 1.5 mL tube, and the medium was added to a final volume of 150 μL.

[4] = system: Bone marrow-derived human mesenchymal stem cells (BM-hMSC); experiment: as above; details: for cell number (relative value): BM-hMSC, hanging drop, 5 μM, 2 days, control = 100%; for cell number (in words): bone marrow-derived human mesenchymal stem cells, hanging drop method
Protocol: as §1, §2

| Compound | proportion of Cysts of 70 μm or more in the entire Cysts (in words) [1] | proportion of Cysts of 70 μm or more ([1]; 5 μM) [%] | proportion of Cysts of 70 μm or more ([1]; 10 μM) [%] | Cyst morphology, confocal fluorescence microscope (in words) [1] | proliferation rate (%) (5 μM) ([2]; 5 μM) | proliferation rate (%) (10 μM) ([2]; 10 μM) | cell number (in words) [3] | cell number (relative value) [3] [%] | cell number (relative value) [4] [%] | cell number (in words) [4] | proliferation rate (%) ([2]; compound 5 μM) |
| --- | --- | --- | --- | --- | --- | --- | --- | --- | --- | --- | --- |
| CC/C(=N\NC(=O)NCc1ccccc1)c1ccc(O)c(C)c1O [k-1:I-1] | increased | 39 | 43 | a normal Cyst was formed | – | – | – | – | – | – | – |
| CC/C(=N\NC(=O)Nc1ccccc1)c1ccc(O)c(C)c1O [k-1:H-10] | – | – | – | – | 127.9 | 138.4 | – | – | – | – | – |
| CC/C(=N\NC(=O)C(C)Nc1ccccc1)c1ccc(O)c(C)c1O (stereo not shown) [k-1:B-1] | increased | 72 | 68 | a normal Cyst was formed | – | – | showed an effect of increasing the number | 227 | 223 | showed an effect of increasing the number | – |
| CCC(=NNC(=O)C(CC)Nc1ccccc1)c1ccc(O)c(C)c1O (stereo not shown) [k-1:H-7] | – | – | – | – | – | – | showed an effect of increasing the number | 232 | 206 | showed an effect of increasing the number | 236.46 |
